Experimental data taken from US6864286B2, “Inhibitors of the EGF-receptor tyrosine kinase and methods for their use” (Parker Hughes Institute, priority 1998, dated 2005).

What was measured:
MDA-MB-361 cells = experiment: MTT cytotoxicity assay, MDA-MB-361; type: cell-based; details: Homo sapiens, 36 hours, read-out: Cancer Cell Cytotoxicity IC50 MDA-MB-361
Experimental: (§1) In order to determine the cytotoxic activity of LFM and its analogs against breast cancer cells, cells in alpha-MEM supplemented with 10% (v/v) fetal calf serum were treated with various concentrations of the compounds for 24 hours at 37° C., washed twice in alpha-MEM, and then used in either MTT assays or in vitro invasion assays, as described hereinafter.
(§2) The cytotoxicity of various compounds against human breast cancer cell lines was analyzed using the MTT (3-[4,5-dimethylthiazol-2-yl]-2,5-diphenyl tetrazolium bromide) assay (Boehringer Mannheim Corp., Indianapolis, Ind.). Uckun F. M., et al. Clin. Cancer Res. 1998, 4, 901-912. Exponentially growing breast cancer cells were seeded into a 96-well plate at a density of 2.5×10^4 cells/well and incubated for 36 hours at 37° C. prior to drug exposure. On the day of treatment, culture medium was carefully aspirated from the wells and replaced with fresh medium containing the LFM analogs at concentrations ranging from 2 to 250 μM. Triplicate wells were used for each treatment. The cells were incubated with the various compounds for 36 hours at 37° C. in a humidified 5% CO2 atmosphere. To each well, 10 μl of MTT (0.5 mg/ml final concentration) was added and the plates were incubated at 37° C. for 4 hours to allow MTT to form formazan crystals by reacting with metabolically active cells. The formazan crystals were solubilized overnight at 37° C. in a solution containing 10% SDS in 0.01 M HCl. The absorbence of each well was measured in a microplate reader (Labsystems) at 540 nm and a reference wavelength of 690 nm.
(§3) To translate the absorbance A540 values into the number of live cells in each well, the A540 values were compared to those on standard A540-versus-cell number curves generated for each cell line. The percent survival was calculated using the formula: % survival=Live cell number[test]/Live cell number [control]×100. The IC50 values were calculated by non-linear regression analysis using an Graphpad Prism software version 2.0 (Graphpad Software, Inc., San Diego, Calif.).

EGFR tyrosine kinase = biological target: T1, EGFR tyrosine kinase (Homo sapiens, UniProt P00533); experiment: Cell-free EGFR immune complex kinase assay; type: biochemical; details: EGFR immunoprecipitated from MDA-MB-231 lysates, 1 hour incubation, read-out: EGFR Inhibition IC50
T1 construct: anti-EGFR immunoprecipitates from lysates of MDA-MB-231 human breast cancer cells; endogenous in cells; host or cells: MDA-MB-231 (ATCC HTB-26)
Experimental: For EGFR immune complex kinase assays, 24-hours after treatment with leflunomide analogs, MDA-MB-231 breast cancer cells were stimulated with 20 ng/mL EGF for 5 minutes, lysed in 1% Nonidet-P-40 buffer, and cell lysates were immunoprecipitated with an anti-EGFR antibody reactive with the sequence Ala^351-Asp^364 of the human EGFR (Upstate Biotechnology Inc. [UBI] Catalog # 05-104) (Uckun, F. M., et al. Clin. Can. Res. 1998, 4, 901). EGFR immune complexes were examined for tyrosine phosphorylation by Western blot analysis, as described by Uckun, F. M., et al. Clin. Can. Res. 1998, 4, 901. All anti-phosphotyrosine Western blots were subjected to densitometric scanning using the automated AMBIS system (Automated Microbiology System, Inc., San Diego, Calif.) and for each time point a % inhibition value was determined by comparing the density ratios of the tyrosine phosphorylated EGFR protein bands to those of the baseline sample and using the formula: % Inhibition=100−100×[Density of tyrosine phosphorylated EGFR band]test sample/[Density of tyrosine phosphorylated EGFR band]baseline control sample. The IC50 values were determined using an Inplot program (Graphpad Software, Inc., San Diego, Calif.).
In other experiments, MDA-MB-231 cells were stimulated with 10 ng/ml EGF prior to immunoprecipitation of the EGFR. EGFR immune complexes were incubated for 1 hour at room temperature with various LFM analogs and tyrosine kinase assays were performed in the presence of [γ-^32P]-ATP, as previously described (Uckun, F. M., et al. Clin. Can. Res. 1998, 4, 901; Narla, R. K., et al. Clin. Can. Res 1998, 1405; Uckun, F. M., et al. Science 1996, 22, 1096; Uckun, F. M., et al. Science 1995, 267, 886). The kinase assay gels were analyzed both by autoradiography and using the BioRad Storage Phosphor Imager System (BioRad, Hercules, Calif.) for quantitative scanning.

MDA-MB-231 cells [1] = experiment: MTT cytotoxicity assay, MDA-MB-231; type: cell-based; details: Homo sapiens, 36 hours, read-out: Cancer Cell Cytotoxicity IC50 MDA-MB-231
Experimental: as §1, §2, §3

MDA-MB-231 cells [2] = experiment: Confocal laser scanning microscopy of treated cells; type: cell-based, human; details: MDA-MB-231, 100 μM, 24 hours, α-tubulin / TOTO-3 staining
Experimental: Immunofluorescence was used to examine the morphologic features of breast cancer cells treated with LFM and its analogs. Before the experiment, cells were trypsinized from rapidly growing tissue culture flasks and seeded onto sterile 22 mm^2 coverslips in 6-well culture plates. Cells on coverslips were returned to the incubator for 24 hours prior to treatment. The following day, drugs were added from a stock solution made in DMSO to a final concentration of 100 μM. Final DMSO concentration was 0.1% in both test samples and controls. Cells were returned to a 37° C. incubator for 24 hours before further processing.
At 24 hours, coverslips were fixed in −20° C. methanol for 15 minutes followed by a 15 minute incubation in phosphate buffered saline +0.1% Triton X-100(PBS-Tx). Coverslips were next incubated with a monoclonal antibody against α-tubulin (Sigma Chemical Co, St. Louis, Mo.) at a dilution of 1:1000 for 40 minutes in a humidified chamber at 37° C. Coverslips were washed for 15 minutes in PBS-Tx followed by a 40 min incubation with a goat anti-mouse IgG antibody conjugated to FITC (Amersham Corp., Arlington Heights, Ill.). The coverslips were again rinsed in PBS-Tx and incubated with 5 μM TOTO-3 (Molecular Probes, Eugene Oreg.) for 20 minutes to label the nuclear DNA. […]

T1 sequence (P00533 25-1210): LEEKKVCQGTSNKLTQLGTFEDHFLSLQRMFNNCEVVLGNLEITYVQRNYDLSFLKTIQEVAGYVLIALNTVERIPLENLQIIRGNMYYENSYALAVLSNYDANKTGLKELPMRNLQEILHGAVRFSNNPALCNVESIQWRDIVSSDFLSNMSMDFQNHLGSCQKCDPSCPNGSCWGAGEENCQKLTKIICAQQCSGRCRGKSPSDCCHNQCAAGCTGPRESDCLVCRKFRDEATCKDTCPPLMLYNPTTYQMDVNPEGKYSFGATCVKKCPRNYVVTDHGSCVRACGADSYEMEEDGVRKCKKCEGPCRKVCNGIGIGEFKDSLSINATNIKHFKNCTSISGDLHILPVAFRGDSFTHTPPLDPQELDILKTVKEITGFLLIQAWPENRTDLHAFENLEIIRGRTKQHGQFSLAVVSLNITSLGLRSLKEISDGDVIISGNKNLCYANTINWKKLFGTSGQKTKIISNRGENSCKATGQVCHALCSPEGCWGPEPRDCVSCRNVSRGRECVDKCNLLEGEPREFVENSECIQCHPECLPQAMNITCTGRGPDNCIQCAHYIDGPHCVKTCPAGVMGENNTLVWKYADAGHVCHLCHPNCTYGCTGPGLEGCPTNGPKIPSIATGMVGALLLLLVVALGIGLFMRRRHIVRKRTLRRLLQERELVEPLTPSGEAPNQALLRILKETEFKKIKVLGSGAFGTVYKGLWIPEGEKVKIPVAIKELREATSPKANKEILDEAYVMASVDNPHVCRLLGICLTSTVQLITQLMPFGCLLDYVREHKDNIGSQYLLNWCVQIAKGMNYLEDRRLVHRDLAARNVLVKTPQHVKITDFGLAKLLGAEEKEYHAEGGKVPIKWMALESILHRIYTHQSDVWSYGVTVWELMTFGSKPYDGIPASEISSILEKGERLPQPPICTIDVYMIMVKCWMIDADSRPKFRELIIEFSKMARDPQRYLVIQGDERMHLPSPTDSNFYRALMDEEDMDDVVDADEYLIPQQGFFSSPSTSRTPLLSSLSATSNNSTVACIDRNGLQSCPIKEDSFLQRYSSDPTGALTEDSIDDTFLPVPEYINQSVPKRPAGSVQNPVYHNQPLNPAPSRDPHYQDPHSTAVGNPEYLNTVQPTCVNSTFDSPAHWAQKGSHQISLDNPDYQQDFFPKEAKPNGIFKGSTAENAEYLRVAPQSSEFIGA

| SMILES | IC50 (MDA-MB-361 cells) [µM] | IC50 (EGFR tyrosine kinase) [µM] | IC50 (MDA-MB-231 cells [1]) [µM] | morphology and microtubular organization of treated cells (MDA-MB-231 cells [2]) |
| --- | --- | --- | --- | --- |
| CC(O)=C(C#N)C(=O)Nc1ccc(Br)cc1 [LFM-A1, α-Cyano-β-hydroxy-β-methyl-N-(4-bromophenyl)propenamide] | > 300 | > 100 | > 300 | – |
| CC(O)=C(C#N)C(=O)Nc1ccc(Cl)cc1 [LFM-A2, α-Cyano-β-hydroxy-β-methyl-N-(4-chlorophenyl)propenamide] | > 300 | > 100 | > 300 | – |
| CC(O)=C(C#N)C(=O)Nc1ccc(F)cc1 [LFM-A3, α-Cyano-β-hydroxy-β-methyl-N-(4-fluorophenyl)propenamide] | > 300 | > 100 | > 300 | did not affect the morphology or microtubular organization |
| CC(O)=C(C#N)C(=O)Nc1ccccc1C(F)(F)F [LFM-A4, α-Cyano-β-hydroxy-β-methyl-N-[2-(trifluoromethyl)phenyl]-propenamide] | > 300 | > 100 | > 300 | – |
| CC(O)=C(C#N)C(=O)Nc1ccccc1Br [LFM-A5, α-Cyano-β-hydroxy-β-methyl-N-(2-bromophenyl)propenamide] | > 300 | > 100 | > 300 | – |
| CC(O)=C(C#N)C(=O)Nc1ccccc1Cl [LFM-A6, α-Cyano-β-hydroxy-β-methyl-N-(2-chlorophenyl)propenamide] | > 300 | > 100 | > 300 | – |
| CC(O)=C(C#N)C(=O)Nc1ccccc1F [LFM-A7, α-Cyano-β-hydroxy-β-methyl-N-(2-fluorophenyl)propenamide] | > 300 | 74.5 | > 300 | – |
| CC(O)=C(C#N)C(=O)Nc1cccc(C(F)(F)F)c1 [LFM-A8, α-Cyano-β-hydroxy-β-methyl-N-[3-(trifluoromethyl)phenyl]-propenamide] | > 300 | > 100 | > 300 | – |
| CC(O)=C(C#N)C(=O)Nc1cccc(Br)c1 [LFM-A9, α-Cyano-β-hydroxy-β-methyl-N-(3-bromophenyl)propenamide] | > 300 | > 100 | > 300 | – |
| CC(O)=C(C#N)C(=O)Nc1cccc(Cl)c1 [LFM-A10, α-Cyano-β-hydroxy-β-methyl-N-(3-chlorophenyl)propenamide] | > 300 | > 100 | > 300 | – |
| CC(O)=C(C#N)C(=O)Nc1cccc(F)c1 [LFM-A11, α-Cyano-β-hydroxy-β-methyl-N-(3-fluorophenyl)propenamide] | > 300 | > 100 | > 300 | – |
| CC(O)=C(C#N)C(=O)Nc1cc(Br)ccc1Br [LFM-A13, α-Cyano-β-hydroxy-β-methyl-N-(2,5-dibromophenyl)propenamide] | > 300 | > 100 | > 300 | – |
| CC(O)=C(C#N)C(=O)Nc1ccccc1 [LFM-A14, α-Cyano-β-hydroxy-β-methyl-N-(phenyl)propenamide] | > 300 | > 100 | > 300 | – |
